Among the data in patent US20090233907A1, “Pyridopyrimidine Derivatives and Their Use as PDE4 Inhibitors” (ASTRAZENECA AB, priority 2006, published 2009) are IC50 values, retold here.

Each structure is given as a SMILES string.

For the assay, the target named is recombinant Human Phosphodiesterase B2 (PDE4B2) (Homo sapiens, UniProt Q07343). The experiment in a line: Human Phosphodiesterase B2 Alpha Screen Assay. The following applies: Alpha Screen cAMP assay. Format: biochemical. The protocol: Human Phosphodiesterase B2 Alpha Screen Assay
recombinant Human Phosphodiesterase B2 (PDE4B2), sequence (Q07343 1-564 isoform Q07343-2): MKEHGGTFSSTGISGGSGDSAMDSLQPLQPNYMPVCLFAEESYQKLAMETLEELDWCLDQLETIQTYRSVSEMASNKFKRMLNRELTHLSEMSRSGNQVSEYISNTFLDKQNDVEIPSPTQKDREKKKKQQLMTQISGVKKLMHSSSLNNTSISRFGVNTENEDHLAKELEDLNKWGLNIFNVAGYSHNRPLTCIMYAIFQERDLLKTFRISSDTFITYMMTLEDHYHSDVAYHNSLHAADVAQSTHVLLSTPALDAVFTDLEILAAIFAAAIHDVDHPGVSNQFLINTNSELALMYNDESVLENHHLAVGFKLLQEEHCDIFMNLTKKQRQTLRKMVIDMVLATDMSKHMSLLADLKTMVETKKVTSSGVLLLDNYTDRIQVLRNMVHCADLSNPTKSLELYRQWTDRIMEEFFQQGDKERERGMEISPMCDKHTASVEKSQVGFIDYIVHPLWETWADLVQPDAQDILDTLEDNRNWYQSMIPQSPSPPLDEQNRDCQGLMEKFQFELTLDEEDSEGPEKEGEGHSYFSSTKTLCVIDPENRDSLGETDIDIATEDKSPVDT
The assay uses recombinant Human Phosphodiesterase B2 (PDE4B2) produced in house (PrAZL0133), stored at −20° C. The substrate uses cAMP, part of the Alpha Screen cAMP kit (Perkin Elmer, Cat# 6760625M), stored at 4° C. The Alpha Screen kit also includes biotinylated cAMP, acceptor and donor beads.
The assay additions were as follows: Test compounds and controls were added to white 384-well flat-bottom plates (Greiner, Cat# 781075), 0.2 μl in 100% DMSO, followed by 10 μl PDE4B2 in reaction buffer. The reaction buffer constitution was: 50 mM Tris (pH 7.5), 8.3 mM MgCl2, 1.7 mM EGTA and 0.01% (w/v) Brij®35. The enzyme and the compounds were incubated at room temperature for 15 minutes. Then 10 μl cAMP in reaction buffer was added. The assay was stopped after 60 minutes incubation at room temperature by adding 10 μl acceptor beads in detection buffer with 40 mM EDTA. The detection buffer constitution was: 5 mM Tris (pH 7.5), 0.1% (w/v) BSA and 0.1% (v/v) Tween 20. This addition followed by an addition of 10 μl donor beads in detection buffer, with biotinylated cAMP. The plates were then incubated, dark at room temperature, for 5 hours followed by measurement on a Fusion™-α analyser. IC50 values (presented in Table 4) were determined using Xlfit curve fitting using model 205.
For `O=C(N[C@H]1CC[C@@H](n2c(=O)c3cc(F)cnc3n(C3CCSC3)c2=O)CC1)c1ccccc1O` (relative stereo) [Example 30, N-{cis-4-[6-fluoro-2,4-dioxo-1-(tetrahydro-3-thienyl)-1,4-dihydropyrido[2,3-d]pyrimidin-3(2H)-yl]cyclohexyl}-2-hydroxybenzamide], the IC50 turned out to be 6.45 nM. As for `O=C(N[C@H]1CC[C@@H](n2c(=O)c3cc(F)cnc3n(C3CCSCC3)c2=O)CC1)c1cc2ccccn2n1` [Example 4, N-{cis-4-[6-fluoro-2,4-dioxo-1-(tetrahydro-2H-thiopyran-4-yl)-1,4-dihydropyrido[2,3-d]pyrimidin-3(2H)-yl]cyclohexyl}pyrazolo[1,5-a]pyridine-2-carboxamide], the figure is 0.674 nM; as for `CC(C)CC(=O)N[C@H]1CC[C@@H](n2c(=O)c3cc(F)cnc3n(C3CCSCC3)c2=O)CC1` [Example 21, N-{cis-4-[6-fluoro-2,4-dioxo-1-(tetrahydro-2H-thiopyran-4-yl)-1,4-dihydropyrido[2,3-d]pyrimidin-3(2H)-yl]cyclohexyl}-3-methylbutanamide], 4.72 nM; as for `O=C(N[C@H]1CC[C@@H](n2c(=O)c3cc(F)cnc3n(C3CCSCC3)c2=O)CC1)c1ccc(O)cc1` [Example 16, N-{cis-4-[6-fluoro-2,4-dioxo-1-(tetrahydro-2H-thiopyran-4-yl)-1,4-dihydropyrido[2,3-d]pyrimidin-3(2H)-yl]cyclohexyl}-4-hydroxybenzamide], 1.69 nM. As for `O=C(N[C@H]1CC[C@@H](n2c(=O)c3cc(F)cnc3n(C3CCSCC3)c2=O)CC1)c1ccco1` [Example 24, N-{cis-4-[6-fluoro-2,4-dioxo-1-(tetrahydro-2H-thiopyran-4-yl)-1,4-dihydropyrido[2,3-d]pyrimidin-3(2H)-yl]cyclohexyl}-2-furamide], the figure is 2.76 nM. Turning to `Cc1ccc(C(=O)N[C@H]2CC[C@@H](n3c(=O)c4cc(F)cnc4n(C4CCSCC4)c3=O)CC2)c(O)c1` [Example 9, N-{cis-4-[6-fluoro-2,4-dioxo-1-(tetrahydro-2H-thiopyran-4-yl)-1,4-dihydropyrido[2,3-d]pyrimidin-3(2H)-yl]cyclohexyl}-2-hydroxy-4-methylbenzamide], the IC50 was 3.75 nM. Regarding `O=C(N[C@H]1CC[C@@H](n2c(=O)c3cc(F)cnc3n(C3CCSCC3)c2=O)CC1)c1ncccc1O` [Example 20, N-{cis-4-[6-fluoro-2,4-dioxo-1-(tetrahydro-2H-thiopyran-4-yl)-1,4-dihydropyrido[2,3-d]pyrimidin-3(2H)-yl]cyclohexyl}-3-hydroxypyridine-2-carboxamide], the IC50 is 5.9 nM. Regarding `O=C(N[C@H]1CC[C@@H](n2c(=O)c3cc(F)cnc3n(C3CCSCC3)c2=O)CC1)c1cccn2ccnc12` [Example 25, N-{cis-4-[6-fluoro-2,4-dioxo-1-(tetrahydro-2H-thiopyran-4-yl)-1,4-dihydropyrido[2,3-d]pyrimidin-3(2H)-yl]cyclohexyl}imidazo[1,2-a]pyridine-8-carboxamide], the IC50 came out at 5.59 nM.

For the molecule `O=C(CCc1cccc(O)c1)N[C@H]1CC[C@@H](n2c(=O)c3cc(F)cnc3n(C3CCSCC3)c2=O)CC1` [Example 19, N-{cis-4-[6-fluoro-2,4-dioxo-1-(tetrahydro-2H-thiopyran-4-yl)-1,4-dihydropyrido[2,3-d]pyrimidin-3(2H)-yl]cyclohexyl}-3-(3-hydroxyphenyl)propanamide], the IC50 was 2.53 nM. As for `O=C(N[C@H]1CC[C@@H](n2c(=O)c3cc(F)cnc3n(C3CCSCC3)c2=O)CC1)c1cn2ccccc2n1` [Example 2, N-{cis-4-[6-Fluoro-2,4-dioxo-1-(tetrahydro-2H-thiopyran-4-yl)-1,4-dihydropyrido[2,3-d]pyrimidin-3(2H)-yl]cyclohexyl}imidazo[1,2-a]pyridine-2-carboxamide], the figure is 1.1 nM. Consider `O=C(N[C@H]1CC[C@@H](n2c(=O)c3cc(F)cnc3n(C3CCSCC3)c2=O)CC1)c1cccc(O)c1` [Example 14, N-{cis-4-[6-fluoro-2,4-dioxo-1-(tetrahydro-2H-thiopyran-4-yl)-1,4-dihydropyrido[2,3-d]pyrimidin-3(2H)-yl]cyclohexyl}-3-hydroxybenzamide], for which the IC50 was 1.8 nM. In the case of `O=C(Cc1cccc(O)c1)N[C@H]1CC[C@@H](n2c(=O)c3cc(F)cnc3n(C3CCSCC3)c2=O)CC1` [Example 8, N-{cis-4-[6-fluoro-2,4-dioxo-1-(tetrahydro-2H-thiopyran-4-yl)-1,4-dihydropyrido[2,3-d]pyrimidin-3(2H)-yl]cyclohexyl}-2-(3-hydroxyphenyl)acetamide], the IC50 was 1.62 nM. As for `O=C(N[C@H]1CC[C@@H](n2c(=O)c3cc(F)cnc3n(C3CCSCC3)c2=O)CC1)[C@H](O)C1CCCCC1` [Example 12, (2R)-2-cyclohexyl-N-{cis-4-[6-fluoro-2,4-dioxo-1-(tetrahydro-2H-thiopyran-4-yl)-1,4-dihydropyrido[2,3-d]pyrimidin-3(2H)-yl]cyclohexyl}-2-hydroxyacetamide], the figure is 0.887 nM; as for `O=C(N[C@H]1CC[C@@H](n2c(=O)c3cc(F)cnc3n(C3CCSCC3)c2=O)CC1)c1ccccc1` [Example 23, N-{cis-4-[6-fluoro-2,4-dioxo-1-(tetrahydro-2H-thiopyran-4-yl)-1,4-dihydropyrido[2,3-d]pyrimidin-3(2H)-yl]cyclohexyl}benzamide], 2.72 nM.

With `O=C(N[C@H]1CC[C@@H](n2c(=O)c3cc(F)cnc3n(C3CCSCC3)c2=O)CC1)C1CCCCC1` [Example 18, N-{cis-4-[6-fluoro-2,4-dioxo-1-(tetrahydro-2H-thiopyran-4-yl)-1,4-dihydropyrido[2,3-d]pyrimidin-3(2H)-yl]cyclohexyl}cyclohexanecarboxamide], the IC50 amounted to 2.15 nM.

Regarding `O=C(N[C@H]1CC[C@@H](n2c(=O)c3cc(F)cnc3n(C3CCSCC3)c2=O)CC1)C(O)c1ccccc1` (relative stereo) [Example 22, N-{cis-4-[6-fluoro-2,4-dioxo-1-(tetrahydro-2H-thiopyran-4-yl)-1,4-dihydropyrido[2,3-d]pyrimidin-3(2H)-yl]cyclohexyl}-2-hydroxy-2-phenylacetamide], the IC50 came out at 0.877 nM. As to `O=C(N[C@H]1CC[C@@H](n2c(=O)c3cc(F)cnc3n(C3CCSCC3)c2=O)CC1)c1ccccc1O` [Example 17, N-{cis-4-[6-fluoro-2,4-dioxo-1-(tetrahydro-2H-thiopyran-4-yl)-1,4-dihydropyrido[2,3-d]pyrimidin-3(2H)-yl]cyclohexyl}-2-hydroxybenzamide], the half-inhibitory concentration (IC50) is 4.65 nM. As for `O=C(N[C@H]1CC[C@@H](n2c(=O)c3cc(F)cnc3n(C3CCSC3)c2=O)CC1)c1cc(CO)ccc1O` (relative stereo) [Example 29, N-{cis-4-[6-fluoro-2,4-dioxo-1-(tetrahydro-3-thienyl)-1,4-dihydropyrido[2,3-d]pyrimidin-3(2H)-yl]cyclohexyl}-2-hydroxy-5-(hydroxymethyl)benzamide], the IC50 amounted to 5.51 nM. Turning to `O=C(CNC(=O)c1ccccc1O)N[C@H]1CC[C@@H](n2c(=O)c3cc(F)cnc3n(C3CCSCC3)c2=O)CC1` [Example 6, N-[2-({cis-4-[6-fluoro-2,4-dioxo-1-(tetrahydro-2H-thiopyran-4-yl)-1,4-dihydropyrido[2,3-d]pyrimidin-3(2H)-yl]cyclohexyl}amino)-2-oxoethyl]-2-hydroxybenzamide], the IC50 amounted to 1.02 nM. Turning to `Cc1ccc(C(=O)N[C@H]2CC[C@@H](n3c(=O)c4cc(F)cnc4n(C4CCSCC4)c3=O)CC2)cc1O` [Example 10, N-{cis-4-[6-fluoro-2,4-dioxo-1-(tetrahydro-2H-thiopyran-4-yl)-1,4-dihydropyrido[2,3-d]pyrimidin-3(2H)-yl]cyclohexyl}-3-hydroxy-4-methylbenzamide], the IC50 was determined as 1.12 nM. For the molecule `O=C(N[C@H]1CC[C@@H](n2c(=O)c3cc(F)cnc3n(C3CCSC3)c2=O)CC1)C1CC1` (relative stereo) [Example 27, N-{cis-4-[6-fluoro-2,4-dioxo-1-(tetrahydro-3-thienyl)-1,4-dihydropyrido[2,3-d]pyrimidin-3(2H)-yl]cyclohexyl}cyclopropanecarboxamide], the IC50 turned out to be 10.7 nM.

`O=C(Cc1ccc(O)cc1)N[C@H]1CC[C@@H](n2c(=O)c3cc(F)cnc3n(C3CCSCC3)c2=O)CC1` [Example 15, N-{cis-4-[6-fluoro-2,4-dioxo-1-(tetrahydro-2H-thiopyran-4-yl)-1,4-dihydropyrido[2,3-d]pyrimidin-3(2H)-yl]cyclohexyl}-2-(4-hydroxyphenyl)acetamide]: the IC50 came out at 1.75 nM. Turning to `COc1ccc(C(=O)N[C@H]2CC[C@@H](n3c(=O)c4cc(F)cnc4n(C4CCSCC4)c3=O)CC2)cc1O` [Example 7, N-{cis-4-[6-fluoro-2,4-dioxo-1-(tetrahydro-2H-thiopyran-4-yl)-1,4-dihydropyrido[2,3-d]pyrimidin-3(2H)-yl]cyclohexyl}-3-hydroxy-4-methoxybenzamide], the IC50 amounted to 0.874 nM. Consider `O=C(N[C@H]1CC[C@@H](n2c(=O)c3cc(F)cnc3n(C3CCSCC3)c2=O)CC1)c1cc(CO)ccc1O` [Example 26, N-{cis-4-[6-fluoro-2,4-dioxo-1-(tetrahydro-2H-thiopyran-4-yl)-1,4-dihydropyrido[2,3-d]pyrimidin-3(2H)-yl]cyclohexyl}-2-hydroxy-5-(hydroxymethyl)benzamide], for which the IC50 was found to be 4.31 nM.

As usually defined, the IC50 is the concentration at which inhibition is half-maximal.
